Among the data in patent US20240293392A1, “INHIBITOR COMPOUNDS” (NeoPhore Limited, priority 2021, published 2024) are IC50 values, retold here.

SMILES strings stand for the structures. Where a name gives a salt, the structure may show the parent alone. Bounds are passed on as bounds.

Assay [1] deals with T1, recombinant N-terminal MLH1 (residues 15-340) (Homo sapiens, UniProt P40692).
T1 construct: recombinant N-terminal MLH1 (residues 15-340)
T1 sequence (P40692 15-340): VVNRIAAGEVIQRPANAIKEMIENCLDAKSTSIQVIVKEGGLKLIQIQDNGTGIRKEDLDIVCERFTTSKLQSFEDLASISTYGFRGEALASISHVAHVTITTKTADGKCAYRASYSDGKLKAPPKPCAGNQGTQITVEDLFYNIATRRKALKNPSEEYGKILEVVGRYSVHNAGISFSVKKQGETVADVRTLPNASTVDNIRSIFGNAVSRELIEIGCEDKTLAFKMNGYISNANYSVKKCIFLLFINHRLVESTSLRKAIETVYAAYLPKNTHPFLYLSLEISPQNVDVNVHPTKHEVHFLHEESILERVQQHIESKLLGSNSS
The assay can be described thus: Fluorescence Polarisation Assay for MLH1. Format: binding. Conditions: fluorescence polarisation probe displacement; 100 nM N-terminal MLH1, 5 nM probe compound. A digest of the protocol: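 FP displacement assay: 100 nM MLH1 (residues 15-340) preincubated 30 min at room temperature with compound in 25 mM HEPES pH 7.5, 250 mM NaCl, 10 mM MgCl2, 0.01% Triton X-100, 5 mM DTT, then 5 nM rhodamine-labelled probe added and read immediately. Data normalised to no-inhibitor and no-enzyme controls.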

The target of assay [2] is T2, recombinant N-terminal PMS2 (residues 1-365) (Homo sapiens, UniProt P54278).
T2 construct: recombinant N-terminal PMS2 (residues 1-365)
T2 sequence (P54278 1-365): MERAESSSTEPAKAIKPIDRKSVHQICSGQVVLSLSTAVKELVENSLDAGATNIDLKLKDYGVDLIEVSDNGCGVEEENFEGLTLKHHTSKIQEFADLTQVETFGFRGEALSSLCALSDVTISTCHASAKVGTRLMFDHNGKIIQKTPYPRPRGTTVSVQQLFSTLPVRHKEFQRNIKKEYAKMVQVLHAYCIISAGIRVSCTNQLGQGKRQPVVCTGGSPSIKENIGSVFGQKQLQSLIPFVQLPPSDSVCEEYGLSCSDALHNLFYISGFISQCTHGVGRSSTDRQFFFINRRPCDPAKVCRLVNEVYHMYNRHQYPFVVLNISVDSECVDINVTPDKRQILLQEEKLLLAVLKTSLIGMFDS
In words: Fluorescence Polarisation Assay for PMS2. Format: binding. The conditions noted are these: fluorescence polarisation probe displacement; 10 nM N-terminal PMS2, 5 nM probe compound; read-out: PMS2 IC50. A digest of the protocol: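 Competition fluorescence polarisation with 10 nM N-terminal PMS2 and 5 nM fluorescent probe (final), read after 1 h at room temperature following 30 min compound pre-incubation. Data normalised to no-inhibitor and no-enzyme controls; single-point screening or serial dilutions for potency.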
(Polarisation of emitted light reports the rotation of a fluorescent probe.)

A word on the IC50: it is the midpoint of a concentration-inhibition curve. For `O=C(c1c(O)cc(O)cc1OCc1ccccc1)N1Cc2cccc(NC3COCC(F)(F)C3)c2C1` (stereo not shown) [Example 32, (2-(Benzyloxy)-4,6-dihydroxyphenyl)(4-((5,5-difluorotetrahydro-2H-pyran-3-yl)amino)isoindolin-2-yl)methanone], the IC50 in assay [1] and in assay [2] was 1 to 10 µM each time.
With `CN1CCC(Nc2cccc3c2CN(C(=O)c2c(O)cc(O)cc2OCc2ccccc2)CC3)CC1` [Example 77, (2-(Benzyloxy)-4,6-dihydroxyphenyl)(8-((1-methylpiperidin-4-yl)amino)-3,4-dihydroisoquinolin-2(1H)-yl)methanone], the IC50 in assay [1] and in assay [2] was above 10 µM in each case.
`CN1CC(Nc2cccc3c2CN(C(=O)c2c(O)cc(O)cc2OCc2ccccc2)CC3)CC1=O` (stereo not shown) [Example 42, 4-((2-(2-(Benzyloxy)-4,6-dihydroxybenzoyl)-1,2,3,4-tetrahydroisoquinolin-8-yl)amino)-1-methylpyrrolidin-2-one]: the IC50 in assay [1] and in assay [2] was below 1 µM throughout.
For the compound `CC12CC(Nc3cccc4c3CN(C(=O)c3c(O)cc(O)cc3OCc3ccccc3)C4)(CO1)C2` [Example 52, (2-(Benzyloxy)-4,6-dihydroxyphenyl)(4-((1-methyl-2-oxabicyclo[2.1.1]hexan-4-yl)amino)isoindolin-2-yl)methanone], the results for the IC50 in assay [1] and in assay [2] were below 1 µM and 1 to 10 µM, respectively.
Take `O=C(c1c(O)cc(O)cc1OCc1ccccc1)N1Cc2cccc(OCC3CNC3)c2C1` [Example 90, (4-(Azetidin-3-ylmethoxy)isoindolin-2-yl)(2-(benzyloxy)-4,6-dihydroxyphenyl) methanone]: the half-maximal inhibitory concentration (IC50) in assay [1] and in assay [2] was 1 to 10 µM each time.
Consider `O=C(c1c(O)cc(O)cc1OCc1ccccc1)N1Cc2cccc(NC3COC3)c2C1` [Example 7, (2-(Benzyloxy)-4,6-dihydroxyphenyl)(4-(oxetan-3-ylamino)isoindolin-2-yl)methanone], for which the concentration for half-maximal inhibition (IC50) in assay [1] is below 1 µM; in assay [2], 1 to 10 µM.
On the same counts, the results for `NCCCCCN1CCN(Cc2ccc3c(c2)CN(C(=O)c2c(O)cc(O)cc2OCc2ccccc2)C3)CC1` [Example 104, (5-((4-(5-Aminopentyl)piperazin-1-yl)methyl)isoindolin-2-yl)(2-(benzyloxy)-4,6 dihydroxyphenyl)methanone hydrochloride] are below 1 µM and below 1 µM.
In the same order, the values of `O=C(c1c(O)cc(O)cc1OCc1ccc(F)cc1)N1Cc2cccc(NC3CCOC3)c2C1` (stereo not shown) [Example 37, (2-((4-Fluorobenzyl)oxy)-4,6-dihydroxyphenyl)(4-((tetrahydrofuran-3-yl)amino)isoindolin-2-yl)methanone] are below 1 µM and 1 to 10 µM.
Take `O=C(c1c(O)cc(O)cc1OCc1ccccc1)N1CCc2cccc(Nc3cncnc3)c2C1` [Example 71, (2-(Benzyloxy)-4,6-dihydroxyphenyl)(8-(pyrimidin-5-ylamino)-3,4-dihydroisoquinolin-2(1H)-yl)methanone]: the IC50 in assay [1] was below 1 µM; in assay [2] it was 1 to 10 µM.
On the same counts, the results for `CNc1cc(OCCOC)cc2c1CN(C(=O)c1c(O)cc(O)cc1OCc1ccccc1)CC2` [Example 128, (2-(Benzyloxy)-4,6-dihydroxyphenyl)(6-(2-methoxyethoxy)-8-(methylamino)-3,4-dihydroisoquinolin-2(1H)-yl)methanone] are 1 to 10 µM and 1 to 10 µM.
In the same order, the values of `O=C(c1c(O)cc(O)cc1OCc1ccccn1)N1CCc2cccc(NC3COC3)c2C1` [Example 57, (2,4-Dihydroxy-6-(pyridin-2-ylmethoxy)phenyl)(8-(oxetan-3-ylamino)-3,4-dihydroisoquinolin-2(1H)-yl)methanone] are below 1 µM and above 10 µM.
In the same order, the values of `CNc1cccc2c1CN(C(=O)c1c(O)cc(O)cc1OCc1ccccc1)CC2` [Example 43, (2-(Benzyloxy)-4,6-dihydroxyphenyl)(8-(methylamino)-3,4-dihydroisoquinolin-2(1H)-yl)methanone] are below 1 µM and 1 to 10 µM.
As for `Cn1ccc(Nc2cccc3c2CN(C(=O)c2c(O)cc(O)cc2OCc2ccccc2)CC3)cc1=O` [Example 133, 4-((2-(2-(Benzyloxy)-4,6-dihydroxybenzoyl)-1,2,3,4-tetrahydro-isoquinolin-8-yl)amino)-1-methylpyridin-2(1H)-one], the IC50 in assay [1] and in assay [2] was 1 to 10 µM throughout.
`CN(C)Cc1ccc2c(c1)CCN(C(=O)c1c(O)cc(O)cc1OCc1ccccc1)C2` [Example 46, (2-Benzyloxy-4,6-dihydroxy-phenyl)-[6-[(dimethylamino)methyl]-3,4-dihydro-1H-isoquinolin-2-yl]methanone]: the IC50 in assay [1] and in assay [2] was 1 to 10 µM each time.
Regarding `CN1C[C@H](Nc2cccc3c2CN(C(=O)c2c(O)cc(O)cc2OCc2ccccn2)CC3)CC1=O` [Example 59, (R)-4-((2-(2,4-dihydroxy-6-(pyridin-2-ylmethoxy)benzoyl)-1,2,3,4-tetrahydroisoquinolin-8-yl)amino)-1-methylpyrrolidin-2-one], the IC50 in assay [1] is below 1 µM; in assay [2], 1 to 10 µM.
For the compound `O=C(c1c(O)cc(O)cc1OCc1ccc(F)c(F)c1)N1Cc2cccc(NC3CCOC3)c2C1` (stereo not shown) [Example 38, (2-((3,4-Difluorobenzyl)oxy)-4,6-dihydroxyphenyl)(4-((tetrahydrofuran-3-yl)amino)isoindolin-2-yl)methanone], the IC50 was below 1 µM in assay [1] and 1 to 10 µM in assay [2].
In the same order, the values of `O=C(c1c(O)cc(O)cc1OCc1ccccc1)N1CCc2cccc(N[C@H]3CCOC3)c2C1` [Example 2, (S)-(2-(Benzyloxy)-4,6-dihydroxyphenyl)(8-((tetrahydrofuran-3-yl)amino)-3,4-dihydro-isoquinolin-2(1H)-yl)methanone] are below 1 µM and 1 to 10 µM.
In the case of `NC(=O)c1cccc(Nc2cccc3c2CN(C(=O)c2c(O)cc(O)cc2OCc2ccccc2)CC3)c1` [Example 74, 3-((2-(2-(Benzyloxy)-4,6-dihydroxybenzoyl)-1,2,3,4-tetrahydroisoquinolin-8-yl)amino)benzamide], the IC50 in assay [1] and in assay [2] was above 10 µM in each case.
Turning to `O=C(c1c(O)cc(O)cc1OCc1ccccn1)N1CCc2cccc(N[C@@H]3CCOC3)c2C1` [Example 56, (R)-(2,4-dihydroxy-6-(pyridin-2-ylmethoxy)phenyl)(8-((tetrahydrofuran-3-yl)amino)-3,4-dihydroisoquinolin-2(1H)-yl)methanone], the IC50 in assay [1] was below 1 µM; in assay [2], above 10 µM.
On the same counts, the results for `O=C(c1c(O)cc(O)cc1OCc1ccccc1)N1CCc2cccc(N[C@@H]3CCOC3)c2C1` [Example 1, (R)-(2-(Benzyloxy)-4,6-dihydroxyphenyl)(8-((tetrahydrofuran-3-yl)amino)-3,4-dihydro-isoquinolin-2(1H)-yl)methanone] are below 1 µM and above 10 µM.
